Key:
[1] = molecular target: T1, hOAT1 (Homo sapiens, UniProt Q4U2R8); assay: In vitro uptake assay in hOAT1-HEK293 cells; format: in vitro ADME; settings: Y101 2.0 µM, M8 10 µM; for inhibition of the uptake of ETV in hOAT1-HEK293 cells: ETV 10 µM; for substrate of hOAT1 (uptake in hOAT1-HEK293 vs mock-HEK293 cells): PAH 10 µM
T1 construct: expressed in transfected cells; host or cells: HEK293
T1 sequence (Q4U2R8 1-563): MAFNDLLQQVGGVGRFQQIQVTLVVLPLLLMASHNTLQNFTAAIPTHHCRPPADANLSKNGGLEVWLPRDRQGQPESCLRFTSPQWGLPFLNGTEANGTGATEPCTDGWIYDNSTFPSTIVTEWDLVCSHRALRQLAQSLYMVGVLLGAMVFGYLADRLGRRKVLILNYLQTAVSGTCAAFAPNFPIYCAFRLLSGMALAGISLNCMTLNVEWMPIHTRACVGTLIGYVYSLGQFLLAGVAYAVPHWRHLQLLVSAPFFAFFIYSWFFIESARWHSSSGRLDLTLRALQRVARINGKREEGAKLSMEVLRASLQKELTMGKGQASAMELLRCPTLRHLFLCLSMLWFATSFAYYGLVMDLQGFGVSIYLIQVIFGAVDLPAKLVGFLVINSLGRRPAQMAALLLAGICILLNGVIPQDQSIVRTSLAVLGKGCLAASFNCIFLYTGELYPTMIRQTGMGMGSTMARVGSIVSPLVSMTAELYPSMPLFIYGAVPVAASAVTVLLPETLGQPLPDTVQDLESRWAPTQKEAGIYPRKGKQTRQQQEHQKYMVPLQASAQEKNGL
Method: The hOAT1-HEK293, hOAT3-HEK293 and mock cells were cultured in Dulbecco modified Eagle medium (DMEM) containing 10% fetal bovine serum (FBS) and 1% penicillin/streptomycin in an atmosphere of 5% CO2 air at 37 °C. The HEK293 cells were plated on 24-well plates at a density of 5 × 10^5 cells/well. […] Uptake assay was initiated by adding 1 mL of the transporter buffer containing Y101, M8, ETV or probe substrate. Following incubation with gentle shaking, the uptake was terminated at designated time by removing the transporter buffer and washing cells three times with 1 mL of ice-cold HBSS. Next, substrates of Y101, M8, ETV, PAH and ES in cell monolayer were released by lysing the cells with 0.3 mL of 0.1% Triton X-100 for 2 h and determined by liquid chromatography–tandem mass spectrometry (LC–MS/MS). In the time-course uptake assay, Y101 (2.0 µM) and M8 (10 µM) in the presence or absence of PRO (100 µM) were measured in hOAT1-HEK293, hOAT3-HEK293 and mock cells. The concentration-dependent uptake of M8 was determined in hOAT3-HEK293 cells, and incubation time (5 min) was optimized. The uptake of M8 (10 µM) with or without ETV was examined in hOAT3-HEK293 cells. The uptake of ETV (10 µM) with or without Y101 or M8 was also measured in hOAT1-HEK293 and hOAT3-HEK293 cells, respectively. Furthermore, PAH and ES at concentrations of 10 µM were used as positive control in hOAT1-HEK293 and hOAT3-HEK293 cells, respectively. Protein concentrations were measured by the bicinchoninic acid procedure (Solarbio, Beijing, China) using bovine serum albumin as the standard.
Biological samples were prepared as previously described. Aliquots (50 µL) of urine, plasma, kidney homogenates, or cell lysates were individually mixed with 150 µL methanol and 50 µL working solution of internal standard (acetaminophen or bestatin), followed by vortexing for 1 min and centrifuging at 13,800 g for 10 min. […] The resulting supernatant (1 µL) was subjected to LC-MS/MS for the assessment of Y101, M8, M9 and ETV, respectively. […] The concentrations of ETV, Y101, M8 and M9 were determined by an AB QTRAP 5500 LC–MS/MS System (Foster City, CA, USA) as previously described. […] Analyst1.5.2 software was used for data processing and analysis.

[2] = tested on: HBV; design: method as in PMID 32277364, PMID 21872478, PMID 19307124, doi:10.1016/S1674-6384(15)60018-1; settings: dose-dependent; cited from earlier work
[3] = tested on: lamivudine and entecavir-resistant HBV; design: method as in PMID 32277364, PMID 21872478, PMID 19307124, doi:10.1016/S1674-6384(15)60018-1; settings: A64 cells; cited from earlier work
[4] = concanavalin A and alpha-naphthylisothiocyanate-induced; cited from earlier work
[5] = design: method as in PMID 32277364, PMID 29258048; settings: healthy Chinese volunteers, phase I; cited from earlier work
[6] = human, in vivo; cited from earlier work
[7] = molecular target: T2, hOAT3 (Homo sapiens, UniProt Q8TCC7); design: expressed in transfected cells; host or cells: HEK293; method as in PMID 23313623; settings: read-out: Km (affinity with hOAT3); cited from earlier work
T2 sequence (Q8TCC7 1-542): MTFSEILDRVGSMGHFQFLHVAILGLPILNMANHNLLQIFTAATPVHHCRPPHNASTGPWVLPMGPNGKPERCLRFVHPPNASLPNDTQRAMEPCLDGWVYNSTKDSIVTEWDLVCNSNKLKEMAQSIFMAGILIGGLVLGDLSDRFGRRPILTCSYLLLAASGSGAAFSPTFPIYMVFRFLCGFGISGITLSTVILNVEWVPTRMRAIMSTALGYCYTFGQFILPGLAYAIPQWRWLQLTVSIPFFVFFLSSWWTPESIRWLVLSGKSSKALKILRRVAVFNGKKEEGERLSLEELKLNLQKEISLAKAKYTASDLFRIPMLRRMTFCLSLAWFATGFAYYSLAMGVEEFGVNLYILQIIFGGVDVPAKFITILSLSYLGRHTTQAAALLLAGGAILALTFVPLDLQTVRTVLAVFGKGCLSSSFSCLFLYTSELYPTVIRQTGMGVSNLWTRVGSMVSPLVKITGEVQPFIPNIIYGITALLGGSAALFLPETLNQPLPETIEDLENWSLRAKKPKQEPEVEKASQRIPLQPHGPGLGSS

| SMILES | inhibition of the uptake of ETV in hOAT1-HEK293 cells [1] | substrate of hOAT1 (uptake in hOAT1-HEK293 vs mock-HEK293 cells) [1] | inhibitory effects on HBsAg and HBV-DNA replication [2] | activity against lamivudine and entecavir-resistant HBV replication [3] | protective effects on induced liver injury [4] | safety and tolerability [5] | plasma concentrations [6] | Km [7] [µM] |
| --- | --- | --- | --- | --- | --- | --- | --- | --- |
| CN(C)CCOc1ccc(CC(NC(=O)c2ccccc2)C(=O)O)cc1 (stereo not shown) [M8] | not inhibited | not a substrate of hOAT1 |  |  |  |  |  |  |
| CN(C)CCOc1ccc(C[C@H](NC(=O)c2ccccc2)C(=O)N[C@H](CO)Cc2ccccc2)cc1.Cl [Y101, N-[N-benzoyl-O-(2-dimethylaminoethyl)-l-tyrosyl]-l-phenylalaninol hydrochloride] | not inhibited | not a substrate of hOAT1 or hOAT3 | potent inhibitory effects | significant activity | protective effects | acceptable safety and tolerability |  |  |
| C=C1[C@H](CO)[C@@H](O)C[C@@H]1n1cnc2c(=O)[nH]c(N)nc21 [ETV, entecavir] |  |  |  |  |  |  | lower than 50 nM | 23 |
